Experimental data as given in PMC8162404, “Proteomimetic surface fragments distinguish targets by function” (Chemical Science, 2020).

Legend:
Assay in all cases: Pull-down assay with immobilized protein and LSM libraries
CaM = target: T1, CaM (Bos taurus, UniProt P62157); format: binding, bovine; details: H12 library; 1:2 stoichiometry assumed; read-out: Surface mapping KD (apparent)
T1 construct: made in house; host or cells: E. coli BL21 (DE3)
Description: Pull-down assays with immobilized test proteins and foldameric LSM libraries were carried out. Proteins were equilibrated with LSM probes, and equilibrium bound fractions (FB) were determined from the unbound fractions measured by HPLC-MS methods. Hits were corrected with background binding of the resin. The protocol allowed all binding events to equilibrate irrespective of affinity, specificity, and binding kinetics. This was essential to judge overall druggability and promiscuity. Importantly, the concentration of protein and the total concentration of foldameric LSMs were equimolar, which minimized competition between the probes. This experimental setup approximated independent binding of individual library members. Results were visualized as heat maps of dissociation constants (Fig. 3).
Pull-down assay and data analysis
Pull-down assay. LSM sublibraries were screened separately as previously described.(2) Experiments were performed in the following buffers: (i) 20 mM pH 7.4 HEPES, 150 mM NaCl, 5 mM CaCl2 for CaM; (ii) 50 mM pH 7.4 HEPES, 150 mM NaCl, 1 mM TCEP, 1 mM CaCl2 for S100 proteins; (iii) 20 mM pH 7.4 HEPES, 150 mM NaCl, 1 mM TCEP for Gal-1 and (iv) 20 mM pH 7.4 HEPES, 150 mM NaCl for RecQ-WH. Assays were performed in paper filter spin cups (Thermo Scientific) with sample volumes of 100 µl. Hexahistidine-tagged proteins were immobilized on previously washed Co-NTA resin (TALON, Takara Bio USA, Inc., […]
LSM sublibrary was added, in which each of the 64 library members were used at a concentration of 1 µM. Samples were incubated at room temperature for 30 min with shaking at 100 rpm. Then, samples were centrifuged at 1000 rpm for 2 min and washed with 100 µl pull-down buffer to remove unbound compounds.
The control experiments were performed using the same compounds and the resin but without the immobilized protein. In case of competitive assays, competitor peptides were added to LSM sublibrary samples in 200 µM final concentration. In the case of Gal-1, lactose (competitor) was used in a concentration of 10 mM. Experiments were performed at least twice. Mean […]
LC-MS methods and parameters. HPLC/ESI-MS analysis was used to characterize the samples from the pull-down assay. LC-MS analysis was performed with a Thermo Scientific Dionex UltiMate 3000 HPLC system interfaced to an LTQ ion trap mass spectrometer (Thermo Electron Corp., San Jose, CA, USA). Samples were injected onto an Aeris Widepore XB-C18 (250 x 4.6 mm) analytical HPLC column using gradient elution 5-80 % solution B during 25 minutes. For pull-down samples, eluent composition was 0.1% acetic acid in distilled water (Solution A) and 0.1% acetic acid in acetonitrile (solution B). Mass spectra were acquired in full scan mode from 200 to 2000 m/z range. For overlapping peaks, selective reaction monitoring (SRM) was […]
MS data analysis. Thermo Xcalibur 2.2 software was used for peak identification and integration. The majority of the foldameric fragments could be resolved independently via HPLC-MS/MS measurements based on molecular weight, MS fragmentation pattern and retention time. Peaks of some foldamers with β3-hIle or β3-hLeu in position R2 could not be resolved, these were integrated and averaged. In the processing method, each sample component was associated to a chromatographic peak based on previously identified mass (m/z) and retention time (ref (2) and Table S7-10). Using ICIS peak detection algorithm, the general detection and integration criteria were: smoothing points: 5, baseline window: 80, area noise factor: 5, peak noise factor: 10. Using these processing setups, all raw data files were reprocessed together and analyzed. Errors in peak identification during the automatic processing were corrected manually.
Calculation of the discussed parameters
1. Bound fractions (FB.) were calculated from the HPLC-MS intensity loss of the LSM probes compared to the control where no protein was immobilized to the resin: […]

S100B = target: T2, S100B (Homo sapiens, UniProt P04271); format: binding; details: H12 library; 1:1 binding assumed; read-out: Surface mapping KD (apparent)
T2 construct: made in house; host or cells: Escherichia coli BL21(DE3)
T2 sequence (P04271 1-92): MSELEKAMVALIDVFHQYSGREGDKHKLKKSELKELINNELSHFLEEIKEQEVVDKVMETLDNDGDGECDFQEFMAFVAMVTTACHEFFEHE
How it was run: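 Buffers were HEPES pH 7.4 with 150 mM NaCl, plus 1 mM TCEP and 1 mM CaCl2 (50 mM HEPES) for S100A4 and S100B, 1 mM TCEP for Gal-1, and no additive for RecQ-WH. Immobilized protein at 64 µM was equilibrated 30 min with the LSM sublibrary, and unbound probes were measured by LC-MS.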

Gal-1 = target: T3, Gal-1 (Homo sapiens, UniProt P09382); format: binding; details: H12 library; 1:1 binding assumed; read-out: Surface mapping KD (apparent)
T3 construct: made in house; host or cells: E. coli BL21(DE3)
T3 sequence (P09382 whole entry): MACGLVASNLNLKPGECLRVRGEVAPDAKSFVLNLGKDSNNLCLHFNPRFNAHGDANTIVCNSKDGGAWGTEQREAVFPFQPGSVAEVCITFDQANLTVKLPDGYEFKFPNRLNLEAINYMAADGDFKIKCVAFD
How it was run: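 His-tagged protein immobilized on Co-NTA resin (64 µM) in 20 mM HEPES pH 7.4, 150 mM NaCl, equilibrated 30 min at room temperature with foldamer LSM sublibraries at equimolar total concentration. Unbound fractions quantified by HPLC-MS versus protein-free resin control; apparent KD assumes 1:1 binding.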

Structure (SMILES)	Kd (CaM)	other results
C[C@@H](CC(=O)N[C@H]1CCC[C@@H]1C(=O)N[C@H]1CCC[C@@H]1C(N)=O)NC(=O)[C@H]1CCC[C@@H]1NC(=O)[C@H]1CCC[C@@H]1NC(=O)C[C@H](CC(N)=O)NC(=O)[C@H]1CCC[C@@H]1NC(=O)[C@H]1CCC[C@@H]1N [H12 NA]	447 µM	–
NC(=O)C[C@@H](CC(=O)N[C@H]1CCC[C@@H]1C(=O)N[C@H]1CCC[C@@H]1C(=O)N[C@@H](CC(=O)O)CC(=O)N[C@H]1CCC[C@@H]1C(=O)N[C@H]1CCC[C@@H]1C(N)=O)NC(=O)[C@H]1CCC[C@@H]1NC(=O)[C@H]1CCC[C@@H]1N [H12 ND]	400 µM	–
CC(C)[C@@H](CC(=O)N[C@H]1CCC[C@@H]1C(=O)N[C@H]1CCC[C@@H]1C(N)=O)NC(=O)[C@H]1CCC[C@@H]1NC(=O)[C@H]1CCC[C@@H]1NC(=O)C[C@H](CC(N)=O)NC(=O)[C@H]1CCC[C@@H]1NC(=O)[C@H]1CCC[C@@H]1N [H12 NV]	460 µM	–
NC(=O)CC[C@@H](CC(=O)N[C@H]1CCC[C@@H]1C(=O)N[C@H]1CCC[C@@H]1C(=O)N[C@@H](CC(=O)O)CC(=O)N[C@H]1CCC[C@@H]1C(=O)N[C@H]1CCC[C@@H]1C(N)=O)NC(=O)[C@H]1CCC[C@@H]1NC(=O)[C@H]1CCC[C@@H]1N [H12 QD]	433 µM	–
NC(=O)CC[C@@H](CC(=O)N[C@H]1CCC[C@@H]1C(=O)N[C@H]1CCC[C@@H]1C(=O)N[C@@H](CCC(=O)O)CC(=O)N[C@H]1CCC[C@@H]1C(=O)N[C@H]1CCC[C@@H]1C(N)=O)NC(=O)[C@H]1CCC[C@@H]1NC(=O)[C@H]1CCC[C@@H]1N [H12 QE]	474 µM	–
C[C@@H](O)[C@@H](CC(=O)N[C@H]1CCC[C@@H]1C(=O)N[C@H]1CCC[C@@H]1C(N)=O)NC(=O)[C@H]1CCC[C@@H]1NC(=O)[C@H]1CCC[C@@H]1NC(=O)C[C@H](CCC(N)=O)NC(=O)[C@H]1CCC[C@@H]1NC(=O)[C@H]1CCC[C@@H]1N [H12 QT]	447 µM	–
NC(=O)CC[C@@H](CC(=O)N[C@H]1CCC[C@@H]1C(=O)N[C@H]1CCC[C@@H]1C(=O)N[C@H](CC(=O)N[C@H]1CCC[C@@H]1C(=O)N[C@H]1CCC[C@@H]1C(N)=O)Cc1ccc(O)cc1)NC(=O)[C@H]1CCC[C@@H]1NC(=O)[C@H]1CCC[C@@H]1N [H12 QY]	403 µM	–
C[C@@H](CC(=O)N[C@H]1CCC[C@@H]1C(=O)N[C@H]1CCC[C@@H]1C(N)=O)NC(=O)[C@H]1CCC[C@@H]1NC(=O)[C@H]1CCC[C@@H]1NC(=O)C[C@H](CO)NC(=O)[C@H]1CCC[C@@H]1NC(=O)[C@H]1CCC[C@@H]1N [H12 SA]	482 µM	–
NC(=O)[C@H]1CCC[C@@H]1NC(=O)[C@H]1CCC[C@@H]1NC(=O)C[C@H](CC(=O)O)NC(=O)[C@H]1CCC[C@@H]1NC(=O)[C@H]1CCC[C@@H]1NC(=O)C[C@H](CO)NC(=O)[C@H]1CCC[C@@H]1NC(=O)[C@H]1CCC[C@@H]1N [H12 SD]	441 µM	–
NC(=O)C[C@@H](CC(=O)N[C@H]1CCC[C@@H]1C(=O)N[C@H]1CCC[C@@H]1C(N)=O)NC(=O)[C@H]1CCC[C@@H]1NC(=O)[C@H]1CCC[C@@H]1NC(=O)C[C@H](CO)NC(=O)[C@H]1CCC[C@@H]1NC(=O)[C@H]1CCC[C@@H]1N [H12 SN]	493 µM	–
NC(=O)[C@H]1CCC[C@@H]1NC(=O)[C@H]1CCC[C@@H]1NC(=O)C[C@H](CO)NC(=O)[C@H]1CCC[C@@H]1NC(=O)[C@H]1CCC[C@@H]1NC(=O)C[C@H](CO)NC(=O)[C@H]1CCC[C@@H]1NC(=O)[C@H]1CCC[C@@H]1N [H12 SS]	480 µM	–
CC(C)[C@@H](CC(=O)N[C@H]1CCC[C@@H]1C(=O)N[C@H]1CCC[C@@H]1C(N)=O)NC(=O)[C@H]1CCC[C@@H]1NC(=O)[C@H]1CCC[C@@H]1NC(=O)C[C@H](Cc1ccc(O)cc1)NC(=O)[C@H]1CCC[C@@H]1NC(=O)[C@H]1CCC[C@@H]1N [H12 YV]	–	Kd (S100B): 166 µM; Kd (Gal-1): 364 µM

Now from value to compound, other results behind:

Kd (CaM)	Structure (SMILES)	other results
214 µM	CC[C@H](C)[C@@H](CC(=O)N[C@H]1CCC[C@@H]1C(=O)N[C@H]1CCC[C@@H]1C(N)=O)NC(=O)[C@H]1CCC[C@@H]1NC(=O)[C@H]1CCC[C@@H]1NC(=O)C[C@H](CC(N)=O)NC(=O)[C@H]1CCC[C@@H]1NC(=O)[C@H]1CCC[C@@H]1N [H12 NI]	–
214 µM	CC(C)C[C@@H](CC(=O)N[C@H]1CCC[C@@H]1C(=O)N[C@H]1CCC[C@@H]1C(N)=O)NC(=O)[C@H]1CCC[C@@H]1NC(=O)[C@H]1CCC[C@@H]1NC(=O)C[C@H](CC(N)=O)NC(=O)[C@H]1CCC[C@@H]1NC(=O)[C@H]1CCC[C@@H]1N [H12 NL]	–
378 µM	CSCC[C@@H](CC(=O)N[C@H]1CCC[C@@H]1C(=O)N[C@H]1CCC[C@@H]1C(N)=O)NC(=O)[C@H]1CCC[C@@H]1NC(=O)[C@H]1CCC[C@@H]1NC(=O)C[C@H](CC(N)=O)NC(=O)[C@H]1CCC[C@@H]1NC(=O)[C@H]1CCC[C@@H]1N [H12 NM]	–
364 µM	NC(=O)C[C@@H](CC(=O)N[C@H]1CCC[C@@H]1C(=O)N[C@H]1CCC[C@@H]1C(=O)N[C@H](CC(=O)N[C@H]1CCC[C@@H]1C(=O)N[C@H]1CCC[C@@H]1C(N)=O)Cc1ccc(O)cc1)NC(=O)[C@H]1CCC[C@@H]1NC(=O)[C@H]1CCC[C@@H]1N [H12 NY]	–
263 µM	CC[C@H](C)[C@@H](CC(=O)N[C@H]1CCC[C@@H]1C(=O)N[C@H]1CCC[C@@H]1C(N)=O)NC(=O)[C@H]1CCC[C@@H]1NC(=O)[C@H]1CCC[C@@H]1NC(=O)C[C@H](CCC(N)=O)NC(=O)[C@H]1CCC[C@@H]1NC(=O)[C@H]1CCC[C@@H]1N [H12 QI]	–
263 µM	CC(C)C[C@@H](CC(=O)N[C@H]1CCC[C@@H]1C(=O)N[C@H]1CCC[C@@H]1C(N)=O)NC(=O)[C@H]1CCC[C@@H]1NC(=O)[C@H]1CCC[C@@H]1NC(=O)C[C@H](CCC(N)=O)NC(=O)[C@H]1CCC[C@@H]1NC(=O)[C@H]1CCC[C@@H]1N [H12 QL]	–
364 µM	CSCC[C@@H](CC(=O)N[C@H]1CCC[C@@H]1C(=O)N[C@H]1CCC[C@@H]1C(N)=O)NC(=O)[C@H]1CCC[C@@H]1NC(=O)[C@H]1CCC[C@@H]1NC(=O)C[C@H](CCC(N)=O)NC(=O)[C@H]1CCC[C@@H]1NC(=O)[C@H]1CCC[C@@H]1N [H12 QM]	–
340 µM	CSCC[C@@H](CC(=O)N[C@H]1CCC[C@@H]1C(=O)N[C@H]1CCC[C@@H]1C(N)=O)NC(=O)[C@H]1CCC[C@@H]1NC(=O)[C@H]1CCC[C@@H]1NC(=O)C[C@H](CO)NC(=O)[C@H]1CCC[C@@H]1NC(=O)[C@H]1CCC[C@@H]1N [H12 SM]	–
299 µM	CC(C)[C@@H](CC(=O)N[C@H]1CCC[C@@H]1C(=O)N[C@H]1CCC[C@@H]1C(N)=O)NC(=O)[C@H]1CCC[C@@H]1NC(=O)[C@H]1CCC[C@@H]1NC(=O)C[C@H](CO)NC(=O)[C@H]1CCC[C@@H]1NC(=O)[C@H]1CCC[C@@H]1N [H12 SV]	–
351 µM	NC(=O)[C@H]1CCC[C@@H]1NC(=O)[C@H]1CCC[C@@H]1NC(=O)C[C@H](Cc1ccc(O)cc1)NC(=O)[C@H]1CCC[C@@H]1NC(=O)[C@H]1CCC[C@@H]1NC(=O)C[C@H](CO)NC(=O)[C@H]1CCC[C@@H]1NC(=O)[C@H]1CCC[C@@H]1N [H12 SY]	–
